Where two headings read alike, the source gives them in different places.
Experiments:
Assay type in all cases: cell-based
[1] = system: Mouse G3 MB Myc1 neurospheres; test: 72 h dose response, CellTiter-Glo, mouse G3 MB neurospheres; settings: 72 hr treatment, 384-well; for EC50: read-out: G3-MB EC50
Experimental: (§1) In the Discovery Phase, the initial studies included the screen of a library of 9 compounds against epigenetic regulators at a single concentration and a dose-response on G3 MB, EP, and CPC tumor cells, as well as HEPG2 and BJ (Fig. 1). The library and dose response studies are described in the Supplementary Material.
(§2) Briefly, cells (see Supplementary Table S2 for cell identity) were plated in 384-well plates (Corning) in 30 µL of supplemented neurobasal medium by using an automated plate filler (Wellmate, Matrix). After 24 hr, 28 nL of compound was transferred via pin tool, resulting in a final drug concentration of approximately 4 nM to 10 µM. After 72 hr of treatment, CellTiter-Glo reagent (Promega) was added, and the luminescence signal was measured using an automated Envision plate reader (Perkin-Elmer). Luminescence data were normalized by log10-transformation prior to calculating the percentage of inhibition using the following equation: 100 × (negative control mean − compound value)/(negative control mean − positive control mean). Our negative control represents cells treated with 0.1% DMSO with 0% inhibition. Cells treated with 35 µM cycloheximide (G3 MB tumor spheres) or 10 µM panobinostat (EP and CPC cells) were used as positive controls with 100% inhibition. The response of cells to the compounds were normalized to that of the positive controls present in each plate screened, shown in the Y axis of the dose-response curve. […] Unless otherwise reported, the y-axis for each dose response curve in the figures was independently normalized to the range from 0 to 1 and therefore reported as ‘relative growth inhibition’. High through put assay data were analyzed by using our in-house Robust Interpretation of Screening Experiments (RISE) application that was written in Pipeline Pilot (Accelrys, v. 8.5) and R (R Development Core Team).

[2] = system: mouse EP neurospheres; test: 72 h dose response, CellTiter-Glo, mouse EP neurospheres; settings: 72 hr treatment, 384-well; for EC50: read-out: EP EC50
Experimental: as §1, §2

[3] = system: mouse CPC neurospheres (CPC300); test: 72 h dose response, CellTiter-Glo, mouse CPC neurospheres; settings: 72 hr treatment, 384-well; for EC50: read-out: CPC300 EC50
Experimental: as §1, §2

Nc1nccc2c1ncn2C1C=C(CO)C(O)C1O (stereo not shown) [3-Deazaneplanocin A] was tested. Which EC50 ([1]; Mus musculus) did it give?
The EC50 was 360 nM.

And the EC50 ([2]; Mus musculus)?
The EC50 was 110 nM.

And the EC50 ([3]; Mus musculus)?
Its EC50 is 310 nM.

Which results are given for Nc1ncn([C@@H]2O[C@H](CO)[C@@H](O)[C@H]2O)c(=O)n1 [5-Azacytidine]?
G3-MB EC50 [1]: Inactive; EC50 ([2]; Mus musculus): 5300 nM; EC50 ([3]; Mus musculus): 1080 nM

With Nc1ncn([C@H]2C[C@H](O)[C@@H](CO)O2)c(=O)n1 [Decitabine] as the compound, how does the EC50 ([1]; Mus musculus) read?
Its EC50 is 960 nM.

What about the EC50 ([2]; Mus musculus) of the same compound?
Its EC50 is 500 nM.

And the EC50 ([3]; Mus musculus)?
Its EC50 is 6700 nM.

Which results are given for CCNC(=O)C[C@@H]1N=C(c2ccc(Cl)cc2)c2cc(OC)ccc2-n2c(C)nnc21 [I-BET]?
EC50 [1]: 900 nM; EC50 [2]: 4100 nM; EC50 [3]: > 5500 nM

For Cc1sc2c(c1C)C(c1ccc(Cl)cc1)=N[C@@H](CC(=O)OC(C)(C)C)c1nnc(C)n1-2 [JQ1], which EC50 [1] is on record?
The EC50 was 700 nM.

And the EC50 [2]?
The EC50 was 1700 nM.

What about the EC50 [3] of the same compound?
The EC50 was > 5600 nM.

For O=C(CCCCCCC(=O)Nc1ccccc1)NO [SAHA (Vorinostat), Vorinostat], which “G3-MB EC50” value [1] is on record?
Its value is “Inactive”.

How did the EC50 [1] turn out when CC(/C=C/C(=O)NO)=C\[C@@H](C)C(=O)c1ccc(N(C)C)cc1 [Trichostatin A] was run?
The EC50 was 100 nM.

What about the EC50 [2] of the same compound?
Its EC50 is 400 nM.

And the EC50 [3]?
The EC50 was 2100 nM.

Which results are given for O=c1ncccn1[C@@H]1O[C@H](CO)[C@@H](O)[C@H]1O [Zebularin, Zebularine]?
G3-MB EC50 [1]: Inactive; EP EC50 [2]: Inactive; CPC300 EC50 [3]: Inactive
